Square brackets hold non-standard residues; d marks the D form. Ends that are not written are not given here. Peptide text beside a SMILES is read from it. Glx = not defined here; Sar = CNCC(=O)O
Columns and labels:
[1] = system: Th-1+ T-lymphocytes and Bu-1+ B-lymphocytes (differentiation of inducible bone marrow cells); test: chicken induction assay; assay type: cell-based; settings: for biological activity: induction of differentiation of Th-1+ T and Bu-1+ B lymphocytes, compared with ubiquitin: chicken bone marrow cells, cytotoxicity index readout; for concentration at which activity was observed: chicken induction assay
Excerpt: To determine the activity and characteristics of the tetrapeptide produced in Example I, the following chicken induction assay was employed. This assay is described in greater detail in Brand, et. al., Science, 193 319-321 (July 23, 1976) and references contained therein.
Bone marrow from newly-hatched chickens was selected as a source of inducible cells because it lacks an appreciable number of Bu-1^+ or Th-1^+ cells. Pooled cells from femur and tibiotarsus of five newly-hatched chicks of strains SC (Hy-Line) were fractionated by ultracentrifugation on a five-layer discontinuous bovine serum albumin (BSA) gradient. Cells from the two lighter layers were combined, washed, and suspended for incubation at a concentration of 5×10^6 cells per milliliter with the appropriate concentration of test polypeptide in RPMI 1630 medium supplemented with 15 mM hepes, 5 percent γ-globulin-free fetal calf serum, deoxyribonuclease (14 to 18 unit/ml), heparin (5 unit/ml), penicillin (100 unit/ml), and streptomycin (100 μg/ml). Controls were incubated with BSA (1 μg/ml) or medium alone. After incubation, the cells were tested in the cytotoxicity assay using chicken Cl and guinea pig C2 to C9 complement fractions as described in the reference article. The proportion of Bu-1^+ or Th-1^+ cells in each layer was calculated as a cytotoxicity index, 100 (a-b)/a, where a and b are the percentages of viable cells in the complement control and test preparation, respectively. The percentage of cells induced was obtained by subtracting the mean values in the control incubations without inducing agents (usually 1 to 3 percent) from those of the test inductions.
This high dose of ubiquitin inactivates the ubiquitin receptors and thus prevents the induction of cells by any agent which acts through these receptors.

[2] = system: cytotoxic lymphocyte precursors (CLP); test: microculture limiting dilution assay of cytotoxic lymphocyte precursor frequencies after injection of the drug; assay type: in vivo, mice (C57 BL/6J); settings: in vitro assay of spleen cells after administration
Procedure: To further illustrate the utility of the subject polypeptides, this example describes a microculture assay for estimating the frequencies of the cytotoxic lymphocytes produced upon stimulation by allogenic antigens. The frequencies of cytotoxic precursors between control animals and animals injected with various concentrations of the drug were compared by a limiting dilution assay.
The test animals (C57 BL/6J) were injected (i.v. or i.p.) with various concentrations of H--SAR--LYS--SAR--GLN--NH2 (the drug; identification no. G040) in 0.2 ml volume 24 hours before they were sacrificed for the experiments.
Cell suspensions from spleens of C57 BL/6J mice or DBA/2J mice were prepared by mincing the organ and pressing them through a wire mesh (60 gauge) with the plunger of a 5 c.c. syringe into a falcon petri dish (falcon 3002, 15×60 mm). The cell suspensions were allowed to stand at room temperature for 10 minutes to let the big chunks of tissue settle. The cell suspensions were then transferred to 15 ml Corning centrifuge tubes (Corning 25310) and spun for 10 minutes at 1500 RPM in the Beckmen TJ-6 centrifuge. […] After the third wash, the responder (C57 BL/6J) cells were resuspended in culture medium and counted in the Coulter counter. […] The DBA cells were then resuspended in the culture medium and counted in the Coulter counter. […]

T cells = settings: E rosette assay, Bach articles; cited from earlier work
T cells and B cells = settings: applicant's published investigation; cited from earlier work

Compound | biological activity: induction of differentiation of Th-1+ T and Bu-1+ B lymphocytes, compared with ubiquitin [1] | further results
C[C@H](N)C(=O)N[C@@H](CCCCN)C(=O)N[C@@H](CO)C(=O)N[C@@H](CCC(N)=O)C(=O)O [Example I, H--ALA--LYS--SER--GLN--OH] (H-AKSQ-OH) | biological activity similar to that of ubiquitin | concentration at which activity was observed [1]: ng/ml concentrations
C[C@@H](N)C(=O)N[C@@H](CCCCN)C(=O)N[C@H](C)C(=O)N[C@@H](CCC(N)=O)C(N)=O [H--D--ALA--LYS--D--ALA--GLN--NH2] (H-[dA]K[dA]Q-NH2) | biological activity similar to that of ubiquitin | 
CNCC(=O)N[C@@H](C)C(=O)N[C@@H](CCCCN)C(=O)N[C@@H](CO)C(=O)N[C@@H](CCC(N)=O)C(=O)O [H--SAR--ALA--LYS--SER--GLN--OH] (H-[Sar]AKSQ-OH) | biological activity similar to that of ubiquitin | 
CNCC(=O)N[C@@H](CCCCN)C(=O)N[C@H](C)C(=O)N[C@@H](CCC(N)=O)C(N)=O [H--SAR--LYS--D--ALA--GLN--NH2] (H-[Sar]K[dA]Q-NH2) | biological activity similar to that of ubiquitin | 
CNCC(=O)N[C@@H](CCCCN)C(=O)N(C)CC(=O)N[C@@H](CCC(N)=O)C(N)=O [H--SAR--LYS--SAR--GLN--NH2] (H-[Sar]K[Sar]Q-NH2) | biological activity similar to that of ubiquitin | effect on in vivo production of cytotoxic lymphocyte precursors upon stimulation by allogenic antigens [2]: promoted the production of cytotoxic lymphocyte precursors; concentration at which activity was observed [1]: ≥ 0.1 pg/mL
GLX--ALA--LYS--SER--GLN--GLY--GLY--SER--ASN (Glx-AKSQGGSN; reading uncertain; also: N-terminal Glx: Gln or pyroglutamic acid, printed as GLX--ALA--LYS--SER--GLN--GLY--GLY--SER--ASN) [FTS, nonapeptide isolated from porcine serum by Bach; GLX is glutamine or pyroglutamic acid] |  | differentiation of T cells versus B cells (T cells): selectively differentiated T cells (and not B cells); differentiation of T cells and B cells (T cells and B cells): differentiated both T cells and B cells
QAKSQ [H--GLN--ALA--LYS--SER--GLN--OH] | biological activity similar to that of ubiquitin | 
QAKSQGGSN [H--GLN--ALA--LYS--SER--GLN--GLY--GLY--SER--ASN--OH, reference compound] | biological activity similar to that of ubiquitin | 
